Data set [1] relates to MCF-7 cancer cells. The data set is described as follows: cytotoxic activity on MCF-7 cancer cells. The format is cell-based. The following applies: read-out: concentration leading to death of 50% of cells.
In data set [2] the test system is HeLa cancer cells. The data set is described as follows: cytotoxic activity on HeLa cancer cells. The format is cell-based. The following applies: read-out: concentration leading to death of 50% of cells.
The nature of data set [3]: water solubility. It is filed as physicochemical. The following applies: in comparison with the aldehydic forms (1).
A short description of data set [4]: storage stability of solutions and syrups. The format is physicochemical. The following applies: at room temperature; oleacein (1 g) in PEG200 or PEG 400 (5 ml). Here is the method: Dried olive leaves of Kalamata variety (10 kg) with 1% moisture are cut in the presence of water (100 L) at 25° C. and left in contact for 30 min. The mixture is filtered and the aqueous phase is obtained. The aqueous solution is extracted with dichloromethane (80 L) and the dichloromethane layer is obtained and evaporated under vacuum at 30° C. The residue (100 g) is made up of oleacein with a purity of 95%. The oleacein is mixed with water (10 L) under vigorous stirring for 30 min and transformed into a pure oleaceinediol solution. Alternatively, oleacein (1 g) is mixed with PEG200 or PEG 400 (5 ml) and converted into the stable polyethylene glycol hemiacetal. This solution is stable at room temperature for 12 months. This solution can be diluted to 100 ml with a saturated sugar solution affording a syrup containing 1% oleaceinediol, stable for 15-30 days with anti-inflammatory use.
Fresh olive leaves of Koroneiki variety (100 g) are left in contact with dichloromethane (500 g) at 25° C. for 30 min. The mixture is filtered and the organic phase is evaporated under vacuum. The residue is dissolved in deionized and distilled water at pH=6 (100 ml) under stirring for 24 hours, filtered and a solution of pure oleomissional is obtained. The solution is evaporated or lyophilized and oleomissional (160 mg) is obtained with a purity of >95%. […]

Turning to 5S-(E)-oleaceinediol, the IC50 in data set [1] and in data set [2] was 5 µM in each case. For the same substance, the “water solubility with respect to substances (1), (2)” value in data set [3] was “greatly increased water solubility”.
With 5S-(E)-oleomissionadiol, the IC50 in data set [1] and in data set [2] was 50 µM each time. Besides, the “water solubility with respect to substances (1), (2)” value in data set [3] is given as “greatly increased water solubility”.
In data set [4], “polyethylene glycol hemiacetal of oleacein” came in with a time stable of 12 months.
